# Source: PubChem BioAssay AID1645866 (Buhrlage Lab, Dana-Farber Cancer Institute and Novartis …, 2021)
# Active and inactive are the calls of the source.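 How the source made its calls: active means in confirmatory dose-response testing, peak deubiquitinase inhibition of 30% or more; inactive means the rest.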
# Biological target: Ubiquitin carboxyl-terminal hydrolase 28 (Homo sapiens) (UniProt Q96RU2)
# Assay: Ubiquitin-specific peptidase 28 DUB inhibitors, biochemical concentration-dependence assay, validation of primary screening hits (AID 1645866)
# Conditions: purified USP28, ubiquitin-rhodamine fluorescence, 30 min
# Sequence of Ubiquitin carboxyl-terminal hydrolase 28 (Homo sapiens) (Q96RU2 whole entry, looked up): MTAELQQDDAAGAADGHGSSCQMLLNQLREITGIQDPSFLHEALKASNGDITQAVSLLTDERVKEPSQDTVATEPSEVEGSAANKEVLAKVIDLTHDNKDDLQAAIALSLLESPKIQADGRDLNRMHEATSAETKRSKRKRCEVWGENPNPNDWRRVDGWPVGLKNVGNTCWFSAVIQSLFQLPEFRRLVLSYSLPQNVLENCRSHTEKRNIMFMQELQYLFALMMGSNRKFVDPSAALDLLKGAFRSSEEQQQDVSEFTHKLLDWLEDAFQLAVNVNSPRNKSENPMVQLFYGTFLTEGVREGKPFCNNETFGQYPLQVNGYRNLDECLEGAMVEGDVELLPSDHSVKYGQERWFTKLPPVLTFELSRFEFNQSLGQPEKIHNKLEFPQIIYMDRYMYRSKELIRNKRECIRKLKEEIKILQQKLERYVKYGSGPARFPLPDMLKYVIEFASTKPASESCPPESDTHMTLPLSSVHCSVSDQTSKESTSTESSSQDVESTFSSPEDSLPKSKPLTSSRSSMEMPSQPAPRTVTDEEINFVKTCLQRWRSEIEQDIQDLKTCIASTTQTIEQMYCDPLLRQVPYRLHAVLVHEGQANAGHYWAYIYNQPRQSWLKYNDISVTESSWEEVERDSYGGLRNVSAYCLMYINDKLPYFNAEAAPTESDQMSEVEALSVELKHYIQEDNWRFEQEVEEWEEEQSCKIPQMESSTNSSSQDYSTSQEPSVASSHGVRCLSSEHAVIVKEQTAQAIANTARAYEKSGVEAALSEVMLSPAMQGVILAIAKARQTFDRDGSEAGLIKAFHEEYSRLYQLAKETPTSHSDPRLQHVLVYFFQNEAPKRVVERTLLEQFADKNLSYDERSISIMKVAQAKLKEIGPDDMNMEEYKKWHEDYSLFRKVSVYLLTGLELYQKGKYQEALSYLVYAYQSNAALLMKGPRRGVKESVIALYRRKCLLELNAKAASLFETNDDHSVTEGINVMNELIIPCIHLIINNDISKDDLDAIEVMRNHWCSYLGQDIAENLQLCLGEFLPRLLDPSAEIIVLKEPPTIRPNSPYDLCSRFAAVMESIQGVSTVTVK
row,Compound,IC50
1,Cc1cc2c(cc1C)NC(CC(=O)Nc1ccc(O)cc1)C(=O)N2 (stereo unspecified),25 µM
2,COc1ccc(C)cc1NC(=O)C1CC(=O)Nc2nc3ccccc3n21 (stereo unspecified),24.4 µM
3,COc1ccc(CCN2COc3c(cc(Cl)c4cccnc34)C2)cc1OC,14.1 µM
4,CO[C@H]1CC[C@H](O)c2c1oc1c3c4c(c(O)c1c2=O)-c1c(cc2c(Cl)c(C)n(N)c(=O)c2c1O)C[C@@H]4OCO3,20.3 µM
5,O=C1N(Cc2ccc(F)cc2)CCN1c1ccc2c(c1)CCC2,40.8 µM
6,CCC(C)NC(=O)Cn1c(=O)n(-c2ccccc2)c(=O)c2ccc(C(=O)NCc3ccco3)cc21 (stereo unspecified),37.9 µM
7,CCC(=O)Nc1ccc2c(c1)nc(CSc1nccc(C)n1)n2CC,0.365 µM
8,CC(C)N1CC[C@@H]2[C@H](C1)CN2C(=O)Nc1cccc(F)c1,> 50 µM (inactive)
9,O=C(COC(=O)c1ccc(Cl)cc1)Nc1ccc2[nH]c(=O)[nH]c2c1,9.08 µM
10,Cn1cc(CCNC(=O)c2cc3ccccc3[nH]2)c2cccnc21,8.29 µM
11,Cc1cnnn1-c1ccc(C(=O)Nc2cc(Cl)ccc2Cl)cc1,43.5 µM
12,COc1ccc(OC)c(NC(=O)c2cc(Cl)ccc2OC)c1,1.66 µM
13,COc1ccc(NC(=O)c2nnn(-c3ccccc3F)c2C)cc1OC,2.61 µM
14,COc1cc(NC(=O)Cn2nc(-c3ccc(F)cc3)ccc2=O)ccc1-n1cnnn1,1.98 µM
15,CCC(=O)N1c2ccccc2NC2=C(C(=O)CC(c3ccccc3OCc3ccccc3)C2)C1c1ccccc1 (stereo unspecified),4.53 µM
16,COc1ccccc1-c1ccc(SCC(=O)Nc2ccc3c(c2)OCCO3)nn1,2.03 µM
17,O=C(OCCCN1C(=O)c2cccc3c(N4CCCCC4)ccc(c23)C1=O)c1ccccn1,> 50 µM (inactive)
18,CCCC1Cc2c(sc3nc(SCC)nc(N)c23)CO1 (stereo unspecified),16.4 µM
19,C/C1=C/CC(O)/C=C/C(C)C(O)C(C)/C=C(\C)C(=O)c2c(O)c(C)cc3c2C(=O)C(Cl)=C(NC(=O)\C=C/C=C/C=C\C(C)C(O)CC1=O)C3=O (stereo unspecified),31.3 µM
20,CCOc1ccc(NC(=O)Cn2cnc(S(=O)(=O)N3CCc4ccccc43)c2)cc1,27.6 µM
21,Cc1ccc2nc(N3CCc4ccccc4C3)c3nncn3c2c1,> 50 µM (inactive)
22,Cc1cc(=O)n(CC(=O)NCc2ccccc2F)c2c1c(C)nn2-c1ccccc1,18.5 µM
23,COc1ccccc1CNC(=O)CCCCn1c(=O)c2ccccc2n(Cc2ccccc2C#N)c1=O,13 µM
24,COc1ccc(CNC(=O)C(C)n2nc(-c3ccco3)c(-c3cc(C)no3)cc2=O)cc1 (stereo unspecified),26.4 µM
25,COc1ccc(-c2nonc2NC(=O)C(c2ccccc2)c2ccccc2)cc1OC,> 50 µM (inactive)
26,CC(=O)CN1CC2(CCN(Cc3ccc(F)cc3)CC2)COc2ccccc2S1(=O)=O,> 50 µM (inactive)

row,Compound,IC50
1,COc1ccc(OC)c(NC(=O)C2Oc3ccccc3NC2=O)c1 (stereo unspecified),8.5 µM
2,CNC(=O)CC1NC(=O)c2csc(n2)-c2ccc(-c3nc(C4=NC(C(=O)N5CCCC5C(N)=O)CO4)cs3)nc2-c2csc(n2)-c2csc(n2)C(C(O)c2ccccc2)NC(=O)CNC(=O)c2nc(sc2COC)C(C(C)C)NC(=O)c2nc1sc2C (stereo unspecified),11.4 µM
3,O=C1CC(c2ccco2)Cc2[nH]c(=O)c(C(=O)Nc3ccc(Cl)cc3)cc21 (stereo unspecified),3.08 µM
4,COc1ccc(CCC(=O)Nc2ccc3c(c2)Sc2ncccc2C(=O)N3C)cc1,41 µM
5,COc1ccccc1NC(=O)Cn1cc(C(=O)c2ccc(C)cc2)c(=O)c2cc(Cl)ccc21,11.3 µM
6,NC(=O)Cn1c(=O)n(Cc2ccc(C(=O)NC3CCCC3)cc2)c(=O)c2ccccc21,> 50 µM (inactive)
7,O=C1CC(O)C(C2=CC(=O)c3c(O)cccc3C2=O)O1 (stereo unspecified),1.91 µM
8,Cc1ccccc1-c1noc(-c2ccccc2OCC(=O)NC(C)C)n1,> 50 µM (inactive)
9,Cc1ccc(C(=O)N2CCCC3(C2)Nc2cccnc2NC3=NC2CCCC2)s1 (stereo unspecified),> 50 µM (inactive)
10,COc1cccc(-n2c(CNCc3cccnc3)nc3ccc([N+](=O)[O-])cc3c2=O)c1,20.2 µM
11,Cc1noc(C)c1COc1cccc(C(=O)Nc2cc(Cl)ccc2-n2cncn2)c1,> 50 µM (inactive)
12,CCc1nnc(NC(=O)c2nnn(-c3ccccc3Cl)c2C)s1,28.5 µM
13,Cc1sc2ncn3c(=O)n(CC(=O)Nc4ccc(F)c(Cl)c4)nc3c2c1C,3.14 µM
14,C[C@@H](C(=O)NCc1ccc(F)cc1)N1C(=O)N2CCc3c([nH]c4ccccc34)[C@@]2(C)C1=O,14.9 µM
15,COc1cccc(-c2nc(C(N)=O)c3[nH]c(=O)n(-c4cccc(Cl)c4)c3n2)c1OC,> 50 µM (inactive)
16,COc1cnc(-c2ccccn2)nc1Sc1ccccc1Cl,10.9 µM
17,COc1ccc(NC(=O)c2ccc(Nc3nnc(C)c4ccccc34)cc2)cc1,22.5 µM
18,CC1=C[C@H]2N(c3ccc(C)cc31)[C@H](C(=O)c1cccs1)[C@@H](C(=O)c1ccc(F)cc1)[C@]21C(=O)Nc2ccccc21,> 50 µM (inactive)
19,Cc1ccc(NC2=NC(c3ccco3)n3c(nc(C)cc3=O)N2)c(C)c1 (stereo unspecified),8.38 µM
20,COc1ccc2nc(Nc3nc(-c4cnc(N5CCOCC5)nc4C)cc(=O)[nH]3)nc(C)c2c1,> 50 µM (inactive)
21,O=C(NC1(O)C(=O)c2ccccc2C1=O)c1ccc(-c2csnn2)cc1,36.5 µM
22,Cc1c(C)n(-c2ccccc2)c2ncn(CC(=O)NC(C)c3ccccc3)c(=O)c12 (stereo unspecified),16.7 µM
23,COc1ccc(CCn2cnc3c([nH]c4ccccc43)c2=O)cc1,12.5 µM
24,Cc1ccc(NC(=O)c2sc(=S)n(CCc3ccccc3)c2N)cc1,9.8 µM
25,O=C(COC(=O)c1n[nH]c2ccccc12)Nc1ccc(N2CCCCC2)cc1,25.9 µM
26,O=C(Nc1ccc(Br)cn1)c1nc2ccccc2nc1N1CCCCC1,> 50 µM (inactive)

row,Compound,IC50
1,Cc1ccc(-c2nc(Cn3cnc4ccccc4c3=O)cs2)cc1,4.97 µM
2,CNC(=O)c1cc2c(=O)n3cccc(C)c3nc2n1Cc1ccccc1,18.8 µM
3,CCn1c(=N)n(CCOc2ccc(F)cc2)c2ccccc21,0.588 µM
4,CC(=O)Nc1ccc(S(=O)(=O)Nc2ccc(Nc3ccc(-n4cccn4)nn3)cc2)cc1,32.8 µM
5,CCNc1oc(-c2ccc(S(=O)(=O)N3CCCCC3)cc2)nc1C#N,26.6 µM
6,Cc1ccc2c(=O)c3c([nH]c2c1C)CCN(CC(=O)NCc1ccccc1)C3,> 50 µM (inactive)
7,CC(C)C(=O)Nc1ccc(N2CCN(Cc3ccc(F)cc3)C2=O)nc1,19.3 µM
8,Cc1ccc2cccc(OCc3nnc(SCC(=O)c4ccc(Cl)cc4)n3C)c2n1,4.77 µM
9,CS(=O)(=O)N1CCc2cc(C(=O)Nc3ccc(Cc4ccncc4)cc3)ccc21,8.75 µM
10,CSc1ccccc1C(=O)Nc1nc(-c2ccncc2)cs1,31 µM
11,COCCCNC(=O)c1ccc(Cn2c(=O)c3ccccc3n(CC(=O)Nc3ccc(OC)cc3)c2=O)cc1,20.1 µM
12,Cc1ccc2nnc(-c3ccccc3)c(C(=O)N3CCN(c4ccccn4)CC3)c2c1,35 µM
13,O=C(Cn1cnc2c(cnn2-c2ccc(Cl)cc2)c1=O)NCc1ccccc1Cl,9.05 µM
14,COc1ccccc1NC(=O)c1nn(-c2cccc(F)c2)c(OC)cc1=O,25.1 µM
15,c1ccc(CN2CCN(c3nc4ccccc4n4nnnc34)CC2)cc1,> 50 µM (inactive)
16,Cc1cccc(-n2nc(C)c3c2NC(=O)CC3C(=O)c2cc3ccccc3o2)c1 (stereo unspecified),25.3 µM
17,O=c1c(-c2nc(C3CC3)no2)cccn1Cc1c(F)cccc1Cl,1.82 µM
18,Cc1nc(SCC(=O)Nc2cc(Cl)ccc2C)c2oc3ccccc3c2n1,2.06 µM
19,CC1Oc2cc3c(-c4c(O)cc(O)c5c(O)c6c(cc45)OC(C)C(C)C6=O)c(O)cc(O)c3c(O)c2C(=O)C1C (stereo unspecified),2.18 µM
20,Cc1ccccc1OCCSc1nc2ccccc2n1CC(=O)NC1CC1,20.7 µM
21,Cc1ccccc1NC(=O)Cn1c(N2CCOCC2)nc2cc(C)n(C)c2c1=O,20.1 µM
22,O=C1Nc2c(Cl)cc(Cl)cc2C1(O)c1sc(NC2CCCCC2)nc1-c1ccccc1 (stereo unspecified),24.6 µM
23,COc1ccccc1C(=O)N1CCc2[nH]c3ccc(F)cc3c2C1,> 50 µM (inactive)
24,Cc1ccn(-c2ccc(NC(=O)c3ccccc3Sc3ccccc3C#N)cc2)n1,36.1 µM
25,CN1CCN(C(=O)c2ccn(-c3ccc4ccc(-c5cnn(C)c5)cn34)n2)CC1,> 50 µM (inactive)
26,COc1ccc2ncc3c(-c4ccc(C)cc4)nn(-c4ccc(F)cc4)c3c2c1,2.11 µM

row,Compound,IC50
1,O=C(Nc1ccc(F)cc1F)NC1Cc2ccccc2C1,44.1 µM
2,CCC(=O)Nc1ccc(-c2nc(Cn3cc(C)cn3)c(C)o2)cc1,3.7 µM
3,CCCc1nc2sc3c(N(CC)CC)ncnc3c2c2c1CCC2,3.77 µM
4,CCN1C(=O)COc2ccc(NC(=O)c3ccc(OCc4nonc4C)cc3)cc21,4.85 µM
5,COCCCNC(=O)Cn1c(=O)n(Cc2ccc(C(=O)NCc3ccccc3OC)cc2)c(=O)c2ccccc21,> 50 µM (inactive)
6,O=C(/C=C/c1ccc(F)cc1)Nc1ccc2c(c1)OCCO2,2.47 µM
7,COc1cccc(N2CCN(C(=O)Nc3ccc4c(c3)NC(=O)CO4)CC2)c1,19.4 µM
8,CC(Sc1n[nH]c2nc3ccccc3n12)C(=O)Nc1ccc2c(c1)OCCO2 (stereo unspecified),37.5 µM
9,Cc1nnc(NCc2cccnc2)c2c1nnn2Cc1ccccc1Cl,26.4 µM
10,Oc1cc(OCc2cccc(C(F)(F)F)c2)ccc1-c1ccn[nH]1,3.84 µM
11,O=C1COc2ccc(NC(=O)c3cnn(Cc4ccccc4)c3)cc2N1,25.4 µM
12,O=C(c1ccc(COc2cccc3ccccc23)o1)N1CCC(Cc2ccccc2)CC1,> 50 µM (inactive)
13,Cc1ccc2[nH]cc(S(=O)(=O)c3ccc(C)c(F)c3)c(=O)c2c1,19.9 µM
14,O=C(Nc1ncc2c(n1)-c1ccccc1CC2)C1CC1,17.6 µM
15,Cc1noc(C)c1S(=O)(=O)Nc1ccc(C(=O)Nc2ccc3c(c2)OCCO3)cc1,3.82 µM
16,Cc1c(-c2ccccc2)oc2c(C(=O)OCC(=O)Nc3ccccc3F)cccc2c1=O,> 50 µM (inactive)
17,O=c1[nH]c(-c2ccccn2)nc2c1CCN(Cc1cnn(-c3ccccc3)c1)C2,> 50 µM (inactive)
18,O=C1C=C(O)c2c(O)cccc2C1=O,15.7 µM
19,CCOc1ccc(NC(=O)Cn2cc(C(=O)c3ccc(Cl)cc3)c(=O)c3cc(OC)ccc32)cc1,4.32 µM
20,Cc1ccccc1C(=O)OCCN1C(=O)c2cccc3c(N4CCCCC4)ccc(c23)C1=O,> 50 µM (inactive)
21,CCCc1cc(=O)oc2cc(OCC(=O)NCc3ccc(OC)cc3)ccc12,16.6 µM
22,COc1cccc(N2CCN(C(=O)c3cc(NC(C)=O)cc4nc(C)ccc34)CC2)c1,> 50 µM (inactive)
23,O=C(Nc1cc(F)c2nc(N3CCCC3)ccc2c1)c1ccco1,> 50 µM (inactive)
